The test system of series [1] is RAW264.7. Briefly: Cytotoxicity against mouse RAW264.7 cells assessed as reduction in cell viability at 20 to 80 uM after 24 hrs by MTT assay. The series is classed as cell-based. Particulars: raw264.7, 24 h. For orientation: Tetrazolium assays rely on reduction of a dye to a coloured formazan, in cell work by metabolically active cells.
The test system of series [2] is RAW264.7. The series can be described thus: Cytotoxicity against mouse RAW264.7 cells assessed as reduction in cell viability at 100 uM after 24 hrs by MTT assay. The series is classed as cell-based. The settings on record: raw264.7, 24 h.
The target in another series is Toll-like receptor 4 (Homo sapiens, UniProt O00206). Briefly: Binding affinity to recombinant human TLR4 using phage displayed compound by Phage-ELISA. (In general: ELISA stands for enzyme-linked immunosorbent assay.)
Sequence of Toll-like receptor 4 (O00206 whole entry): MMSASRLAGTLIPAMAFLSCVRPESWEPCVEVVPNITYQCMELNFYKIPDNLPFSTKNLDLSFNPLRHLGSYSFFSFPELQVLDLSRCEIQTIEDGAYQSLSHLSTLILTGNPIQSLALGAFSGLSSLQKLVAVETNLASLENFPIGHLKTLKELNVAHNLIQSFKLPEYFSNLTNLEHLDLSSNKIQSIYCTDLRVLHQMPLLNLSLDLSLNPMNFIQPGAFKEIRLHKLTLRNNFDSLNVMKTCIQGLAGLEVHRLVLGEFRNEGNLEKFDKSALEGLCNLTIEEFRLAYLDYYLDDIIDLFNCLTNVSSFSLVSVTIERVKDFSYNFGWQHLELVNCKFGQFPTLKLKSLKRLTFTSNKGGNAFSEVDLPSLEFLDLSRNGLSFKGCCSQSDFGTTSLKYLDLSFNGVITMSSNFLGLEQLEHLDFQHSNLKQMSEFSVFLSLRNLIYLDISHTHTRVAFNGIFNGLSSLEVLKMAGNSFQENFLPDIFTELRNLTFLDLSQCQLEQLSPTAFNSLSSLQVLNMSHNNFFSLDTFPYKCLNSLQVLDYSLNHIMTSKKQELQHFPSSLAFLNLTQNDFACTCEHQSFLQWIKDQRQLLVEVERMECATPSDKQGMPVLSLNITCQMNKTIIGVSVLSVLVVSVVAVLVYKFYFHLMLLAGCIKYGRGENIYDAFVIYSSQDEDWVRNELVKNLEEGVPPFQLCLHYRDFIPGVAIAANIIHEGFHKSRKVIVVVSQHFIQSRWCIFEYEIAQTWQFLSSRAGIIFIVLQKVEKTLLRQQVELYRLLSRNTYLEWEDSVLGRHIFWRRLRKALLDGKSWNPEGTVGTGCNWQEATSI

Active and inactive are the calls of the source. The calls are words filed in the database; no cut-off is given here.

Take H-FGRYFPCLNWLG-OH: the Activity result in the series on RAW264.7 [1] was “Non-Toxic”; in the series on RAW264.7 [2], “Toxic”. The result on Toll-like receptor 4 was Active.
The corresponding values for H-FWIFSRYPGASA-OH are “Non-Toxic”, “Toxic” and “Active”.
The corresponding values for H-LWWCFHSLRWLG-OH are “Non-Toxic”, “Toxic” and “Active”.
The corresponding values for H-HWWHFHSLRWLG-OH are “Non-Toxic”, “Toxic” and “Active”.

The values are drawn from ChEMBL document CHEMBL4359843, “Linear and Rationally Designed Stapled Peptides Abrogate TLR4 Pathway and Relieve Inflammatory Symptoms in Rheumatoid Arthritis Rat Model” (J Med Chem, 2019).
